Data: patent US12668607B2, “Heterocyclic amide compound, preparation method therefor and use thereof” (SHANGHAI JEYOU PHARMACEUTICAL CO., LTD., priority 2019, dated 2026)

How the values were obtained:
human STING protein = biological target: T1, human STING protein (Homo sapiens, UniProt Q86WV6, H232R); assay: STING in vitro binding assay (fluorescence polarization, FP affinity assay); settings: competition with 30 nM fluorescein-labeled c-di-GMP, 10 μM recombinant human wild-type STING C-terminal protein (aa 140-379), 30 min room temperature
T1 construct: from the 140th amino acid to the 379th amino acid; 6His-SUMO (N, cleaved yes); made in house
T1 sequence (Q86WV6 140-379 H232R): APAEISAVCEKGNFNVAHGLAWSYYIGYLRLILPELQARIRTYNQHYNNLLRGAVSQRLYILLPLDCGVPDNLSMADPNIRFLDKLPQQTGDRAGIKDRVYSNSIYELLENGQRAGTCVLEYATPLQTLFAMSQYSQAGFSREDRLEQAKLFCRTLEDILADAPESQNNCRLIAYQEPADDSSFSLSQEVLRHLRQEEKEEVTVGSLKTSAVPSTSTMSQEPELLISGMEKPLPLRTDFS
Protocol: Fluorescence polarization assay (FP assay) was used to detect the affinities of compounds to a human STING protein. The reaction system contained a certain amount of fluorescein labeled C-di-GMP and compounds to be detected with different concentrations, and when the C-terminal protein of the recombinant human STING was added, the two small molecules were competitively bound with the protein. The bound fluorescein-labeled c-di-GMP rotated slowly in the liquid phase, and at this point, the degree of fluorescence polarization detected was also high. The fluorescence polarization degree was in inverse relation with the concentrations and the affinities of the compounds to be detected. By detecting the magnitude of the polarized light in the reaction system, the affinities of the compounds to be detected to human STING could be accurately known.
The N-terminal of the recombinant STING protein was a 6His-SUMO sequence to facilitate correct protein folding and purification, and after protease cleavage, the C-terminal STING was used for FP assay.
In FP assay, a 384-well plate was used, with the fluorescein-labeled c-di-GMP with a final concentration of 30 nM, 10 μM human STING protein, and either reference compounds with different concentrations or the compounds to be detected added into 10 μL of the reaction system each well. The plate was centrifuged at 1000 g for 1 min, incubated at room temperature for 30 min in the dark and read with Envision.

THP1-Dual™ cells = assay: THP-Dual in vitro binding assay (THP1-Dual reporter cells, Lucia luciferase/QUANTI-Luc); type: cell-based, human; settings: 30 min compound exposure, wash, 18 h incubation, IF-α/β activity by QUANTI-Luc
Text: The THP1-Dual™ cells used in the assay (InvivoGen, Catalog code: thpd-nfis) were constructed by stable integration of two inducible reporter genes in the human monocyte-like cell line THP1. The promoter sequence of the secretory embryo alkaline phosphatase (SEAP) reporter gene comprised an IFN-β basal promoter, 5 copies of NF-κB coexpression transcriptional response elements (NF-κB consensus transcriptional response elements) at the upstream and 3 copies of c-Rel binding sites. The secreted luciferase (Lucia) reporter gene was driven by 5 interferon-stimulated response elements (IFN-stimulated response elements) and a basal promoter of ISG54, thus making it possible to study two major downstream signaling pathways of STING simultaneously: the NF KB pathway was studied by assaying the SEAP activity; and the IRF pathway was studied by assessing the activity of Lucia luciferase.
To each well of a 96-well plate were added 20 μL of reference compounds or the compounds to be detected followed by the addition of 180 μL of THP1-Dual™ cell-containing FBS-free RPMI-1640 culture medium (about 90,000 cells/well). After incubating at 37° C. for 30 min under 5% CO2, the plate was centrifuged at 1000 rpm for 10 min, the supernatant was discarded, and the plate was washed twice with RPMI-1640 at 200 μL/well, and incubated for 18 h with RPMI-1640 at 200 µL/well. IF-α/β activity was quantified using QUANTI-Luc™ prepared and used according to the manufacturer's instructions.

colon cancer cells CT26 = assay: Drug efficacy evaluation in CT26 syngeneic mouse model; type: in vivo, Balb/C mice; settings: CT26 subcutaneous tumors
Protocol: The compound efficacy evaluation was carried out by a CT26 syngeneic mouse model in this experiment. 3E5 colon cancer cells CT26 (ATCC-CRL-2638) were inoculated subcutaneously into 6-8 week-old Balb/C mice (Shanghai Lingchang Biotechnology Co., Ltd.), and the mice were randomly divided grouped, 6 mice per group when the tumor volume reached 100 mm^3. Intratumoral administration was performed on day 1 after grouping. Compound 1 was administered at a dose of 1 μg per mouse, 0.1 μg per mouse and 0.01 μg per mouse, respectively, for each group. Tumor volume measurements were taken three times a week after the start of administration. The calculation formula for tumor volume was: V=0.5a×b^2, with a and b representing the long and short diameters of the tumor, respectively. Each point is the mean and standard error of mean (SEM) of the tumor volume. Differences between control (saline) and administered groups were statistically analyzed using two-way ANOVA (statistical differences on day 15: Prism 8, ****p<0.0001).

Row | Structure (SMILES) | IC50 (human STING protein) | EC50 (THP1-Dual™ cells; Homo sapiens) | EC50 (THP1-Dual™ cells) | tumor growth speed compared with the control group (colon cancer cells CT26; intratumoral administration day 1, 1, 0.1 and 0.01 μg per mouse, two-way ANOVA day 15 ****p<0.0001 vs saline) | inhibition of tumor growth in mice (dose relation) (colon cancer cells CT26; intratumoral, 1, 0.1 and 0.01 μg per mouse)
1 | CCn1nc(C)cc1C(=O)/N=c1/[nH]c2cc(C(N)=O)cc(OC)c2n1C/C=C/Cn1/c(=N/C(=O)c2cc(C)nn2CC)[nH]c2cc(C(N)=O)cc(OCCCOC(=O)[C@@H](N)C(C)C)c21 [Compound 2] | 1700 nM | 8 nM | – | – | –
2 | CCn1nc(C)c2c1C(=O)/N=C1\Nc3cc(C(N)=O)cc(OCCCO[C@H]4[C@@H](OC)O[C@H](CO)[C@@H](O)[C@@H]4O)c3N1C/C=C/CN1/C(=N\C(=O)c3cc(C)nn3CCCCC2)Nc2cc(C(N)=O)cc(OC)c21 [Compound 5] | 1500 nM | 60 nM | – | – | –
3 | CCn1nc(C)cc1C(=O)/N=c1/[nH]c2cc(C(N)=O)cc(OC)c2n1C/C=C/Cn1/c(=N/C(=O)c2cc(C)nn2CC)[nH]c2cc(C(N)=O)cc(OCCN3CCCC4(CCNC4)C3)c21 (centres unmarked) [Compound 6] | 2200 nM | 2100 nM | – | – | –

Continued, in another order:

Row | IC50 (human STING protein) | EC50 (THP1-Dual™ cells; Homo sapiens) | EC50 (THP1-Dual™ cells) | Structure (SMILES) | tumor growth speed compared with the control group (colon cancer cells CT26; intratumoral administration day 1, 1, 0.1 and 0.01 μg per mouse, two-way ANOVA day 15 ****p<0.0001 vs saline) | inhibition of tumor growth in mice (dose relation) (colon cancer cells CT26; intratumoral, 1, 0.1 and 0.01 μg per mouse)
4 | 400 nM | 21 nM | – | CCn1nc(C)cc1C(=O)/N=c1/[nH]c2cc(C(N)=O)cc(OC)c2n1C/C=C/Cn1/c(=N/C(=O)c2cc(C)nn2CC)[nH]c2cc(C(N)=O)cc(OCCCO[C@H]3[C@@H](OC)O[C@H](CO)[C@@H](O)[C@@H]3O)c21 [Compound 1] | significantly slowed down | dose-dependent
5 | 3700 nM | 40 nM | – | CCn1nc(C)cc1C(=O)/N=c1/[nH]c2cc(C(N)=O)cc(OC)c2n1C/C=C/Cn1/c(=N/C(=O)c2cc(C)nn2CC)[nH]c2cc(C(N)=O)cc(OCCCO[C@H]3[C@H](OC)O[C@H](CO)[C@H]3O)c21 [Compound 3] | – | –
6 | 1600 nM | 520 nM | – | CCn1nc(C)cc1C(=O)/N=c1/[nH]c2cc(C(N)=O)cc(OCCCN3CCOCC3)c2n1C/C=C/Cn1/c(=N/C(=O)c2cc(C)nn2CC)[nH]c2cc(C(N)=O)cc(OCCCO[C@H]3[C@@H](OC)O[C@H](CO)[C@@H](O)[C@@H]3O)c21 [Compound 4] | – | –
7 | 3800 nM | 80 nM | – | CCn1nc(C)cc1C(=O)/N=c1/[nH]c2cc(C(N)=O)cc(OC)c2n1C/C=C/Cn1/c(=N/C(=O)c2cc(C)nn2CC)[nH]c2cc(C(N)=O)cc(OCCCN3CC4(COC4)C3)c21 [Compound 7] | – | –
8 | – | – | 18200 nM | Nc1ncnc2c1ncn2[C@@H]1O[C@@H]2COP(O)(=S)O[C@@H]3C(O)[C@@H](COP(O)(=S)O[C@H]2[C@H]1O)O[C@H]3n1cnc2c(N)ncnc21 (some centres unmarked) [ML RR-S2 CDA, reference compound] | – | –
